# Experimental data as given in PMC4492759, “Pharmacological profiling of the hemodynamic effects of cannabinoid ligands: a combined in vitro and in vivo approach” (Pharmacology Research & Perspectives, 2015).
# Tests used:
# [1] = molecular target: T1, mouse CB1 (Mus musculus, UniProt P47746); assay: [35S]-GTPγS binding, membranes of HEK293s cells transfected with mouse CB1; type: biochemical; conditions: agonist mode; mean ± SEM, at least three experiments; read-out: CB1 EC50, Mouse
# T1 construct: expressed in transfected cells; host or cells: HEK293s, transient transfection; membranes prepared
# Description: (§1) Antagonist assays were performed similarly, with the addition of an EC80 concentration of CP55940 as a nonselective CB1/CB2 agonist in conjunction with the ligand to be tested. Nonspecific binding was determined in the presence of 20 μmol/L unlabeled GTPγS. The reaction was terminated by addition of ice-cold wash buffer (50 mmol/L Tris-HCl, 5 mmol/L MgCl2, 50 mmol/L NaCl; pH 7.4) followed by rapid filtration under vacuum through 96-well B-glass fiber filter plates (PerkinElmer, Waltham, Massachusetts, USA) using a Biomek FX (Beckman Coulter, Bromma, Sweden). The filter plates were dried (30 min at 50°C) before scintillation liquid (PerkinElmer) was added onto the filters and the bound radioactivity was determined using a scintillation counter (Wallac). Data were fitted with a four-parameter logistic fit using the equation y = A + (B − A)/1 + ((C/x)^D), where A is no activation, B is full activation, C is the EC50, and D is the Hill slope. All data were based on at least three independent experiments.
# [2] = molecular target: T2, rat GPR55 (Rattus norvegicus, UniProt F1MAK4); assay: [35S]-GTPγS binding, membranes of HEK293s cells transfected with rat GPR55; type: biochemical; conditions: agonist mode; mean ± SEM, at least three experiments; read-out: GPR55 EC50, Rat
# T2 construct: expressed in transfected cells; host or cells: HEK293s, transient transfection; membranes prepared
# T2 sequence (F1MAK4 1-319): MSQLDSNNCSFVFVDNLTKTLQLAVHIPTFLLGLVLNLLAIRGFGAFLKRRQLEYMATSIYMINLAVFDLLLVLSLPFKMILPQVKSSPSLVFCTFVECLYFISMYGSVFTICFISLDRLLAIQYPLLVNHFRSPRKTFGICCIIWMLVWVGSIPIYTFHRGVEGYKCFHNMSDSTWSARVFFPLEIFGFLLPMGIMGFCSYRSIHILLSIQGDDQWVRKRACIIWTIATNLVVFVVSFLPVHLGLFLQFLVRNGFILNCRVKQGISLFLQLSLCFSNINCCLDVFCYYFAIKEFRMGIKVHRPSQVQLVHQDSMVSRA
# Description: as §1, with “HEK293s cells were transiently transfected with cDNA encoding rat or mouse CB1 or GPR55 and membranes were prepared as previously described (Ryberg et al. [2007]). In short, agonist activities in [^35S]-GTPγS binding assays were determined by the addition of ligand at 30°C for 45 min in membrane buffer [50 mmol/L NaCl, 5 mmol/L MgCl2, 0.5 mmol/L EDTA, 25 mmol/L HEPES (all Sigma, Gillingham, Dorset, UK); pH 7.4] containing 0.05 μg μL^−1 of membrane protein with 0.01% BSA, 25 μmol/L guanosine 5′-diphosphate (GDP), 100 μmol/L dithiothreitol (DTT), and 0.53 nmol/L [^35S]GTPγS (PerkinElmer) in a final volume of 200 μL. Antagonist” for “Antagonist”
# [3] = test system: rat GPR55; assay: as above; type: biochemical; conditions: GTPγS binding, GPR55 activation
# Description: as §1, with “HEK293s cells were transiently transfected with cDNA encoding rat or mouse CB1 or GPR55 and membranes were prepared as previously described (Ryberg et al. [2007]). In short, agonist activities in [^35S]-GTPγS binding assays were determined by the addition of ligand at 30°C for 45 min in membrane buffer [50 mmol/L NaCl, 5 mmol/L MgCl2, 0.5 mmol/L EDTA, 25 mmol/L HEPES (all Sigma, Gillingham, Dorset, UK); pH 7.4] containing 0.05 μg μL^−1 of membrane protein with 0.01% BSA, 25 μmol/L guanosine 5′-diphosphate (GDP), 100 μmol/L dithiothreitol (DTT), and 0.53 nmol/L [^35S]GTPγS (PerkinElmer) in a final volume of 200 μL. Antagonist” for “Antagonist”
# [4] = molecular target: T3, mouse GPR55 (Mus musculus, UniProt Q3UJF0); assay: [35S]-GTPγS binding, membranes of HEK293s cells transfected with mouse GPR55; type: biochemical; conditions: agonist mode; mean ± SEM, at least three experiments; read-out: GPR55 EC50, Mouse
# T3 construct: expressed in transfected cells; host or cells: HEK293s, transient transfection; membranes prepared
# Description: as §1, with “HEK293s cells were transiently transfected with cDNA encoding rat or mouse CB1 or GPR55 and membranes were prepared as previously described (Ryberg et al. [2007]). In short, agonist activities in [^35S]-GTPγS binding assays were determined by the addition of ligand at 30°C for 45 min in membrane buffer [50 mmol/L NaCl, 5 mmol/L MgCl2, 0.5 mmol/L EDTA, 25 mmol/L HEPES (all Sigma, Gillingham, Dorset, UK); pH 7.4] containing 0.05 μg μL^−1 of membrane protein with 0.01% BSA, 25 μmol/L guanosine 5′-diphosphate (GDP), 100 μmol/L dithiothreitol (DTT), and 0.53 nmol/L [^35S]GTPγS (PerkinElmer) in a final volume of 200 μL. Antagonist” for “Antagonist”
# [5] = test system: anesthetized Sprague–Dawley (SD) rats; assay: Hemodynamic responses (MABP, HR) in anesthetized normotensive rats; type: in vivo, rat; conditions: O-1602 5–100 ng kg−1 i.v.
# Description: All experiments performed under terminal anesthesia were carried out following approval by Robert Gordon University Animal Ethics Panel. Anesthesia was induced in male SD rats (200–300 g) by sodium pentobarbital [60 mg kg^−1 intraperitoneal (i.p.) injection]. Male/female WT and GPR55^−/− mice (25–35 g) were anesthetized with a mixture of ketamine (120 mg kg^−1) and xylazine (16 mg kg^−1) via i.p. injection. For both species the trachea was cannulated to allow artificial respiration with room air when required (54 strokes min^−1 and tidal volume 1.5 mL 100 g^−1 for rats; 120 strokes min^−1 and tidal volume 100 μL 10 g^−1 for mice) and the left carotid artery and right jugular vein were cannulated for the measurement of arterial BP (MLT844 Physiological Pressure Transducer; AD Instruments, Oxford, UK) and drug administration, respectively. Core temperature was monitored continuously and maintained at 37–38°C with the aid of a Vetcare heated pad (Harvard Apparatus Ltd., Boston, Massachusetts, USA). Anesthesia was monitored by foot pinch reflex and maintained throughout by administration of additional doses of anesthetic (rats: 3–4 mg kg^−1 of sodium pentobarbital salt i.v.; mice: 50 μL 25 g^−1of ketamine/xylazine i.p.) every 40 min, or as required. […] Heart rate (HR) was calculated from the ECG and recorded throughout the entire experimental period. After a stabilization period of approximately 15 min dose–response experiments were carried out as described below.
# As a preliminary assessment of the effects of ACEA on arterial BP, a single bolus intravenous dose (3 mg kg^−1; selected from the literature as a dose known to produce a depressor response) was given to anesthetized rats. […] The time interval between drug administrations was 10–15 min to allow BP values to return to predrug values.
# T3 sequence (Q3UJF0 whole entry): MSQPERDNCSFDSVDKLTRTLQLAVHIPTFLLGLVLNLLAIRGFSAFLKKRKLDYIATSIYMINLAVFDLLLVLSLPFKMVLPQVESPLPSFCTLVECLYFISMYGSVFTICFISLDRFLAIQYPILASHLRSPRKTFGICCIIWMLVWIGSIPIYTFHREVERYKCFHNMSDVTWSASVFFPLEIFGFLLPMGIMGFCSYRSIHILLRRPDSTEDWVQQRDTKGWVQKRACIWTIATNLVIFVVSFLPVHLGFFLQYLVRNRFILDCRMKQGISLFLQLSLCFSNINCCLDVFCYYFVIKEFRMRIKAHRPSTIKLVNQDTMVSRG
# T1 sequence (P47746 whole entry): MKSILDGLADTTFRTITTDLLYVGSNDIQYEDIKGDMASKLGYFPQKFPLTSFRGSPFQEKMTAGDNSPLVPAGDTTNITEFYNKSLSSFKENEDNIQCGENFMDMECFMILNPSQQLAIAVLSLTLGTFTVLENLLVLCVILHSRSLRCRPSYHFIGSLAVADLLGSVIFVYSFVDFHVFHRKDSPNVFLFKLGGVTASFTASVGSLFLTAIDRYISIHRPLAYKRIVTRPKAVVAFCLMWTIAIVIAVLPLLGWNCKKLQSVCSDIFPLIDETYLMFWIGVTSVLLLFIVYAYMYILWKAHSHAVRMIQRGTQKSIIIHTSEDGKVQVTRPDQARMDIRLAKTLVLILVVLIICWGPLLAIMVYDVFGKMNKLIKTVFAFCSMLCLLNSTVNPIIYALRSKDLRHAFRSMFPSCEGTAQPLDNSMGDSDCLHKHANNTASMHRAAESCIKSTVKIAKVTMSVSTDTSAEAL
smiles,measurement,setting,value
C=C(C)[C@@H]1CCC(C)=C[C@H]1c1c(C)cc(O)cc1O [O-1602],EC50,[1],> 30000 nM
same,EC50,[2],20 ± 3 nM
same,potency at GPR55 relative to that of ACEA,[3],approximately 5 times
same,EC50,[4],12 ± 4 nM
same,changes in MABP or HR over and above vehicle,[5],did not produce any changes
